From patent US20250215030A1, “STAT MODULATORS AND USES THEREOF” (Recludix Pharma, Inc., priority 2022, published 2025)

Assays:
pSTAT3 (pY705-STAT3) = biological target: T1, pSTAT3 (pY705-STAT3) (Homo sapiens, UniProt P40763); experiment: MSD-pSTAT-PBMC Assay (pSTAT3, IL-6 stimulated); format: cell-based; settings: PBMC, compound 3 hrs, then 10 ng/mL IL-6 for 10 min; MSD pY705-STAT3; read-out: pSTAT3
T1 construct: host or cells: cryopreserved PBMC
Outline: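 Human PBMCs (50,000 cells/well for STAT3, 25,000 for STAT6) treated with compound 3 h, then stimulated 10 min with 10 ng/mL IL-6 or 1 ng/mL IL-4. Lysate pSTAT3 (pY705) or pSTAT6 (pY641) measured by MSD sandwich electrochemiluminescence. Signal minus unstimulated, normalized to DMSO; IC50 by variable-slope nonlinear regression.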

pSTAT6 (pY641-STAT6) = biological target: T2, pSTAT6 (pY641-STAT6) (Homo sapiens, UniProt P42226); experiment: MSD-pSTAT-PBMC Assay (pSTAT6, IL-4 stimulated); format: cell-based; settings: compound 3 hrs, then 1 ng/mL IL-4 for 10 min
T2 construct: host or cells: cryopreserved PBMC
T2 sequence (P42226 1-847): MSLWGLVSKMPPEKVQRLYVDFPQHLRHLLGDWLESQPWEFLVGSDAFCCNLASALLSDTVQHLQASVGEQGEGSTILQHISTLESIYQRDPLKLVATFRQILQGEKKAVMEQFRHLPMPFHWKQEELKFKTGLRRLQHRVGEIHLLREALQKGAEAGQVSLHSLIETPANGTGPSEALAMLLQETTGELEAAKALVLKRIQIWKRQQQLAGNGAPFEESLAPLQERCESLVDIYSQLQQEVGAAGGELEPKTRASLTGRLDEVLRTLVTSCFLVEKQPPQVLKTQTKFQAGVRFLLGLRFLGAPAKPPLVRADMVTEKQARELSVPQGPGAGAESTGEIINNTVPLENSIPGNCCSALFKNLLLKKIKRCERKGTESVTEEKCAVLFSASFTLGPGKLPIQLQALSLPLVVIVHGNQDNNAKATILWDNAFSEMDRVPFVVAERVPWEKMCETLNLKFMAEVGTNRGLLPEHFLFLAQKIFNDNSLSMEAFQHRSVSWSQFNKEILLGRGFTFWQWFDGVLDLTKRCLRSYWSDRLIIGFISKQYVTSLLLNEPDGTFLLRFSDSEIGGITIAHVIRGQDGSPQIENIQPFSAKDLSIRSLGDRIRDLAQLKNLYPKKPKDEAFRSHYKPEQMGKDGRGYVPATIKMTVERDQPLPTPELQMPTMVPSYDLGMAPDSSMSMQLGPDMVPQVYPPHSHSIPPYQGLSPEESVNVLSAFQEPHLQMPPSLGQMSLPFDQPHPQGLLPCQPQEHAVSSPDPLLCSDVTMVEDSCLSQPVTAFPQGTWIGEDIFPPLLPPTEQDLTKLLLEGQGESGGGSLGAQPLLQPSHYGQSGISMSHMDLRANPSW
Excerpt: Cryopreserved Peripheral Blood Mononuclear Cells (PBMC) are from AllCells. Recombinant Human IL-4 and IL-6 are from Peprotech. Mouse monoclonal anti-STAT3 antibody, rabbit monoclonal anti-pY705-STAT3 antibody, rabbit monoclonal Anti-pY641-STAT6 antibody, and lysis buffer are from Cell Signaling Technology (CST). Mouse monoclonal anti-STAT6 antibody is from BioLegend. Assay plates, blocker, and anti-rabbit secondary antibody are from Meso Scale Discovery (MSD).
Cryopreserved PBMCs were thawed out and allowed to recover overnight in IMDM+10% heat-inactivated FBS prior to plating 50,000 (STAT3) or 25,000 (STAT6) cells per well in 96-well U-bottom tissue culture plates. Cells were treated with compound for 3 hrs, then stimulated with 10 ng/mL IL-6 (STAT3) or 1 ng/mL IL-4 (STAT6) for 10 min. Cells were then spun down and washed with ice-cold PBS prior to lysing the cell pellet with 1× lysis buffer (CST) with 1× HALT protease and phosphatase inhibitor cocktail (Thermo). Lysates were transferred to and incubated overnight at 4° C. with shaking in QuickPlex 96-well high bind assay plates (MSD) pre-coated overnight with 30 μL per well of 0.6 μg/mL mouse monoclonal anti-STAT3 antibody (STAT3) or 2 μg/mL mouse monoclonal anti-STAT6 antibody (STAT6) in 1×PBS, and pre-blocked for 1 hour with 3% Blocker-A (MSD). Captured protein in the assay plates were then washed and probed with 25 μL per well of 0.25 μg/ml rabbit monoclonal anti-pY705-STAT3 antibody (STAT3) or 0.18 μg/ml rabbit monoclonal Anti-pY641-STAT6 antibody (STAT6) in 1% Blocker-A for 1 hour at room temperature with shaking, then washed and probed with 25 ul per well of 1 ug/mi Sulfo-TAG Labeled Goat Anti-Rabbit Antibody (MSD) in 1% Blocker-A for 1 hour at room temperature with shaking. Assay plates were then washed and 150 μL of 1× Read Buffer-T (MSD) was added to each well prior to reading on an SQ120 MSD Plate Reader. Assay signal from each sample was subtracted by the signal from unstimulated control wells and normalized to DMSO control wells. IC50 values were calculated using Graph Pad Prism Dose-Response Nonlinear Regression with variable slope. For both pSTAT3 and pSTAT6 A=≤100 nM; B=>100-1000 nM; C=>1000-3000 nM; and D=>3 μM.

T1 sequence (P40763 whole entry): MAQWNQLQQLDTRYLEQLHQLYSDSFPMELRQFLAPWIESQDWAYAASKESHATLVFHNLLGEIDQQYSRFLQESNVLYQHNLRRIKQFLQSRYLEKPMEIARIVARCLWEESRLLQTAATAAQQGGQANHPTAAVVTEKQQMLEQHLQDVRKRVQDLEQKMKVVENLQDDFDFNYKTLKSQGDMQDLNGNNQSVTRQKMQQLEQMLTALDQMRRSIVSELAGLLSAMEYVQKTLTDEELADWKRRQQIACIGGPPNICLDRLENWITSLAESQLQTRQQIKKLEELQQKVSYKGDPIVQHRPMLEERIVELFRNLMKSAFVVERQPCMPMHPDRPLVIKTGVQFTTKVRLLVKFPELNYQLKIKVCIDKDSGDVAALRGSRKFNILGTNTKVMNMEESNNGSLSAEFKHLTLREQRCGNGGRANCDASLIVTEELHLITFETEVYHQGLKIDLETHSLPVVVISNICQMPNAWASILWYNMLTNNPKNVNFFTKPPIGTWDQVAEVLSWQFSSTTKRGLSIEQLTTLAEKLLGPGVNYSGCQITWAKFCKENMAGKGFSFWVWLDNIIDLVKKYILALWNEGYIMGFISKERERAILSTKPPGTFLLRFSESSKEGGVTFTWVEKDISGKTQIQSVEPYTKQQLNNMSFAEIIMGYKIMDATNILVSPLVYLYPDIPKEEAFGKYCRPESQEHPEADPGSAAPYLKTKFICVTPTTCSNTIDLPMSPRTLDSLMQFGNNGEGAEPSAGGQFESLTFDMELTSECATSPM

Row | IC50 (pSTAT3 (pY705-STAT3)) | IC50 (pSTAT6 (pY641-STAT6)) | Compound
1 | < 100 nM | > 3000 nM | COC1(c2nccn2C)CN(C(=O)[C@@H]2CC[C@@H]3C[C@@H]4C[C@@H]4C[C@H](NC(=O)c4cc5cc(C(F)(F)P(=O)(OCCSC(=O)C(C)(C)C)OCCSC(=O)C(C)(C)C)ccc5s4)C(=O)N32)C1 [Compound 202, S,S′-((((difluoro(2-(((3S,6S,7aR, 8aS,9aR)-3-(3-methoxy-3-(1-methyl-1H-imidazol-2-yl)azetidine-1-carbonyl)-5-oxodecahydro-1H-cyclopropa[d]pyrrolo[1,2-a]azocin-6-yl)carbamoyl)benzo[b]thiophen-5-yl)methyl)phosphoryl)bis(oxy))bis(ethane-2,1-diyl)) bis(2,2-dimethyl-propanethioate)]
2 | 100 to 1000 nM | > 3000 nM | CC(C)(C)C(=O)SCCOP(=O)(Cc1ccc2sc(C(=O)N[C@H]3C[C@H]4C[C@H]4C[C@H]4CC[C@@H](C(=O)N5CC(c6cccnc6)C5)N4C3=O)cc2c1)OCCSC(=O)C(C)(C)C [Compound 223, S,S′-(((((2-(((3S,6S,7aR, 8aS,9aR)-5-oxo-3-(3-(pyridin-3-yl)azetidine-1-carbonyl)decahydro-1H-cyclopropa[d]pyrrolo[1,2-a]azocin-6-yl)carbamoyl)benzo[b]thiophen-5-yl)methyl)phosphoryl)bis(oxy))bis(ethane-2,1-diyl)) bis(2,2-dimethyl-propanethioate)]
3 | 1000 to 3000 nM | > 3000 nM | CC(C)(O)CC(=O)SCCOP(=O)(OCCSC(=O)CC(C)(C)O)C(F)(F)c1ccc2sc(C(=O)NC3CC4CC4CC4CCC(C(=O)N5CC(n6ccnc6)C5)N4C3=O)cc2c1 [Compound 136, S,S′-(((((2-(((3S,6S,7aS, 8aR,9aR)-3-(3-(1H-imidazol-1-yl)azetidine-1-carbonyl)-5-oxodecahydro-1H-cyclopropa[d]pyrrolo[1,2-a]azocin-6-yl)carbamoyl)benzo[b]thiophen-5-yl)difluoro-methyl)phosphoryl)bis(oxy))bis (ethane-2,1-diyl))bis(3-hydroxy-3-methylbutane thioate)]

Further lines, the compound ahead of its results:

Row | Compound | IC50 (pSTAT3 (pY705-STAT3)) | IC50 (pSTAT6 (pY641-STAT6))
4 | CC(C)(C)C(=O)OCOP(=O)(OCOC(=O)C(C)(C)C)C(F)(F)c1ccc2sc(C(=O)N[C@H]3C[C@@H]4C[C@@H]4C[C@H]4CC[C@@H](C(=O)N5CC(N6CCOCC6)C5)N4C3=O)cc2c1 [Compound 204, (((difluoro(2-(((3S,6S,7aS, 8aR,9aR)-3-(3-morpholino-azetidine-1-carbonyl)-5-oxodecahydro-1H-cyclopropa[d]pyrrolo[1,2-a]azocin-6-yl)carbamoyl)benzo[b]thiophen-5-yl)methyl)phosphoryl)bis(oxy)) bis(methylene) bis(2,2-dimethyl-propanoate)] | < 100 nM | 100 to 1000 nM
5 | CC(C)OC(=O)[C@@H](C)CNP(=O)(Oc1ccccc1)C(F)(F)c1ccc2sc(C(=O)N[C@H]3C[C@@H]4C[C@@H]4C[C@H]4CC[C@@H](C(=O)N5CC(C(=O)N6CCOCC6)C5)N4C3=O)cc2c1 (stereo partly drawn) [Compound 184, isopropyl (2S)-3-(((difluoro(2-(((3S,6S,7aS, 8aR,9aR)-3-(3-(morpholine-4-carbonyl)azetidine-1-carbonyl)-5-oxodecahydro-1H-cyclopropa [d]pyrrolo[1,2-a]azocin-6-yl)carbamoyl)benzo[b]thiophen-5-yl)methyl) (phenoxy)phosphoryl)amino)-2-methyl-propanoate] | > 3000 nM | > 3000 nM
6 | CC(C)OC(=O)OCOP(=O)(OCOC(=O)OC(C)C)C(F)(F)c1ccc2sc(C(=O)N[C@H]3C[C@H]4C[C@H]4C[C@H]4CC[C@@H](C(=O)N5CC(c6cccnc6)C5)N4C3=O)cc2c1 [Compound 189, (((difluoro(2-(((3S,6S,7aR, 8aS,9aR)-5-oxo-3-(3-(pyridin-3-yl)azetidine-1-carbonyl)decahydro-1H-cyclopropa[d]pyrrolo[1,2-a]azocin-6-yl)carbamoyl)benzo[b]thiophen-5-yl)methyl)phosphoryl)bis(oxy)) bis(methylene) diisopropyl bis(carbonate)] | < 100 nM | 1000 to 3000 nM
7 | CC(C)(C)C(=O)OCOP(=O)(OCOC(=O)C(C)(C)C)C(F)(F)c1ccc2sc(C(=O)N[C@H]3C[C@H]4C[C@H]4C[C@H]4CC[C@@H](C(=O)NC5CN(C(=O)CCC(F)(F)F)C5)N4C3=O)cc2c1 [Compound 215, (((difluoro(2-(((3S,6S,7aR, 8aS,9aR)-5-oxo-3-((1-(4,4,4-trifluoro-butanoyl)azetidin-3-yl)carbamoyl)decahydro-1H-cyclopropa[d]pyrrolo[1,2-a]azocin-6-yl)carbamoyl)benzo[b]thiophen-5-yl)methyl)phosphoryl)bis(oxy)) bis(methylene) bis(2,2-dimethyl-propanoate)] | < 100 nM | 100 to 1000 nM
8 | CC(C)(C)C(=O)OCOP(=O)(OCOC(=O)C(C)(C)C)C(F)(F)c1ccc2sc(C(=O)N[C@H]3C[C@@H]4C[C@@H]4C[C@H]4CC[C@@H](C(=O)N[C@@H]5CCN(c6cccnc6)C5)N4C3=O)cc2c1 [Compound 212, (((difluoro(2-(((3S,6S,7aS, 8aR,9aR)-5-oxo-3-(((R)-1-(pyridin-3-yl)pyrrolidin-3-yl)carbamoyl)decahydro-1H-cyclopropa[d]pyrrolo[1,2-a]azocin-6-yl)carbamoyl)benzo[b]thiophen-5-yl)methyl)phosphoryl)bis(oxy)) bis(methylene) bis(2,2-dimethyl-propanoate)] | < 100 nM | > 3000 nM
9 | CC(C)CC(=O)SCCOP(=O)(Oc1ccccc1)C(F)(F)c1ccc2sc(C(=O)N[C@H]3C[C@H]4C[C@H]4C[C@H]4CC[C@@H](C(=O)N5CC(c6cccnc6)C5)N4C3=O)cc2c1 (stereo partly drawn) [Compound 193, S-(2-(((difluoro(2-(((3S,6S,7aR, 8aS,9aR)-5-oxo-3-(3-(pyridin-3-yl)azetidine-1-carbonyl)decahydro-1H-cyclopropa[d]pyrrolo[1,2-a]azocin-6-yl)carbamoyl)benzo[b]thiophen-5-yl)methyl) (phenoxy)phosphoryl)oxy)ethyl) 3-methylbutane thioate] | < 100 nM | > 3000 nM
10 | CCCOC(=O)C(C)NP(=O)(Oc1ccccc1)C(F)c1ccc2sc(C(=O)N[C@H]3C[C@@H]4C[C@@H]4C[C@H]4CC[C@@H](C(=O)N5C[C@@H]6[C@H]5CCN6c5cccnc5)N4C3=O)cc2c1 (stereo in doubt) [Compound 298, propyl ((fluoro(2-(((3S,6S,7aS,8aR,9aR)-5-oxo-3-((1R,5R)-2-(pyridin-3-yl)-2,6-diazabicyclo[3.2.0]heptane-6-carbonyl)decahydro-1H-cyclopropa[d]pyrrolo[1,2-a]azocin-6-yl)carbamoyl)benzo[b]thiophen-5-yl)methyl)(phenoxy)phosphoryl)-L-alaninate] | < 100 nM | –
